Patent publication US9675574B2, “Composition comprising a combination of DHA and EPA for administration prior to commencement of chemotherapy” (Fresenius Kabi Deutschland GmbH, priority 2010, dated 2017)

Legend:
[1] = tested on: HT-29 colorectal cancer cells; assay: 15-day clonogenicity experiment, pretreatment before irradiation (Example 6); format: cell-based, human; settings: 48 h pretreatment with 20 μM to 100 μM, irradiation 2 to 6 Gy
Protocol: (§1) HT-29 colorectal cancer cells (ATCC number HTB-38) were cultured in Dulbecco's Modified Eagle's Medium (DMEM, product number D 5030, Sigma Chemie AG, Buchs, Switzerland) supplemented with 10% heat-inactivated fetal calf serum (FBS), 1 g/L D-glucose, 3.7 g/L sodium bicarbonate and 0.1 g/L penicillin-streptomycin (all additives from Life Technologies Inc., Grand Island, N.Y.). The cells were cultured at 37° C. in a humidified atmosphere with a 5% CO2 content and kept in the exponential growth phase by twice weekly subculturing. The cultures were tested for mycoplasma infection using the MycoAlert Detection Kit (product number LT07-118, Cambrex, Verviers, Belgium).
The cytotoxic effect of a two-day (48 hours) pretreatment of HT-29 cells with 0 μM, 20 μM, 50 μM or 100 μM DHA or EPA on irradiation of the cells at 0 Gy, 2 Gy, 4 Gy or 6 Gy was examined in a 15-day clonogenicity experiment.
To this end, the culture medium of the cells was replaced with medium which contained the relevant concentrations (0 μM, 20 μM, 50 μM or 100 μM) of DHA or EPA. Controls were cultured in medium without EPA and without DHA. […] The cells were then detached from the culture vessel by means of trypsinization (1× trypsin-EDTA, Life Technologies Inc., Grand Island, N.Y.), resuspended and counted. […] The surviving cell fraction was calculated with reference to the untreated controls (S/S0).

[2] = tested on: colorectal cancer cell lines, breast cancer cell lines and lung cancer cell lines; assay: Clonogenicity experiment with further tumor cell lines, pre- versus posttreatment (Example 7); format: cell-based; settings: irradiation
Protocol: The experiment is carried out analogously with further tumor cell lines (colorectal cancer cell lines, breast cancer cell lines and lung cancer cell lines).

[3] = tested on: HT-29; assay: 15-day clonogenicity experiment, treatment prior to versus after irradiation (Example 7); format: cell-based, human; settings: treatment prior to irradiation (A) versus untreated controls (C) and treatment after irradiation (B); for formation of colonies: 20-100 μM, 48 h
Protocol: as §1, with “Human” for “HT-29 colorectal”, “cell lines (HT-29; ATCC” for “cells (ATCC”, “are” for “were”, “NY).” for “N.Y.).”
The cytotoxic effect of treatment of the cells with DHA, EPA, MCTs and iron on irradiation of the cells at 0 Gy, 2 Gy, 4 Gy or 6 Gy is examined in a 15-day clonogenicity experiment.
Firstly, the influence of 0 μM, 20 μM, 50 μM or 100 μM DHA or EPA in the case of treatment of the cells (A) prior to the irradiation compared to the treatment of the cells after the irradiation (B) is determined. Cells untreated with EPA or DHA, which are also irradiated, serve as a control (C).
In the case of the cells which are treated with EPA or DHA prior to the irradiation (A), the culture medium of the cells is replaced with medium containing the relevant concentrations (0 μM, 20 μM, 50 μM or 100 μM) of DHA or EPA. The cells are cultured for 48 hours in the medium, and then irradiated with an individual radiation dose of 0 Gy (control), 2 Gy, 4 Gy or 6 Gy in an X-ray 6 MV instrument.
In the case of cells which are treated with EPA or DHA after the irradiation (B) and in the case of the control cells (C), a media change is carried out 48 hours prior to the irradiation; the cells receive normal culture medium. After 48 hours, the cells are irradiated with an individual radiation dose of 0 Gy (control), 2 Gy, 4 Gy or 6 Gy in an X-ray 6 MV instrument.
After the irradiation, the cells are then detached from the culture vessel by means of trypsinization (1× trypsin-EDTA, Life Technologies Inc., Grand Island, NY), resuspended and counted. The cells are subsequently serially diluted according to a standard protocol and seeded in 100×20 mm cell culture dishes containing 10 mL of medium in a cell count which leads to the formation of about 200 colonies. Cells of groups A and C are seeded in normal culture medium, and cells of group B are seeded in medium containing the relevant concentrations (0 μM, 20 μM, 50 μM or 100 μM) of DHA or EPA.
After 48 hours, all cells are subjected to a media change, after which all cells are cultured in normal culture medium.
After a total of 14 days of incubation at 37° C., the vessels are washed with phosphate-buffered saline (PBS, Life Technologies Inc., Grand Island, N.Y.), fixed, and stained with a 0.5% crystal violet solution in methanol/glacial acetic acid (3:1, v/v). The surviving cell fraction is calculated with reference to the untreated controls (S/S0).

| Compound | effect on survival of HT-29 cells in combination with irradiation [1] | cytotoxic effect of pretreatment compared to posttreatment [2] | size of colonies formed [3] | surviving cell fraction (S/S0) [3] | formation of colonies [3] |
| --- | --- | --- | --- | --- | --- |
| CC/C=C\C/C=C\C/C=C\C/C=C\C/C=C\C/C=C\CCC(=O)O [DHA, (4Z,7Z,10Z,13Z,16Z,19Z)-docosa-4,7,10,13,16,19-hexaenoic acid] | synergistic effect | greater cytotoxic effect | colonies formed are smaller | also smaller | fewer colonies |
| CC/C=C\C/C=C\C/C=C\C/C=C\C/C=C\CCCC(=O)O [EPA, (5Z,8Z,11Z,14Z,17Z)-eicosa-5,8,11,14,17-pentaenoic acid] | synergistic effect | greater cytotoxic effect | colonies formed are smaller | also smaller | fewer colonies |
